{"source": "patent EP3358006A1", "about": "“METHOD AND MEDIUM FOR CULTIVATING PRIMARY CELLS IN VITRO” (Mares Ltd., priority 2017, dated 2018)", "format_in_all_cases": "cell-based, human", "key": {"hMSCs [1]": {"tested_on": "hMSCs", "assay": "Osteocyte differentiation, Ca2+ accumulation by cresopthalein", "settings": "for Absorbance at 577nm, Osteocyte-differentiated cells: 21 days; for Absorbance at 577nm, Control cells: no differentiation protocol", "protocol": "(§1) Cells at passage 6 were seeded at a density of 2x10^5 (adipogenesis and chondrogenesis) or 3x10^4 (osteogenesis) into wells of a 6 well tissue culture plate. Kits for differentiation along adipogenic, chondrocytic and osteocytic lineages were obtained from Lonza and accompanying protocols followed. Early stage characteristics of differentiation were then assessed. Adipocytes were assayed for fat accumulation after 18 days from the onset of the differentiation protocol. Cells were fixed by incubating for 10 minutes in 10% formalin, followed by 60 minutes in fresh 10% formalin and washing with 60% isopropanol. 5mM Oil red O in 60% isopropanol (filtered), 1ml per well, was added to dry wells and left for 10 minutes before washing four times with water. Oil red O was eluted with 1ml 100% isopropanol per well and the optical density measured at 500nm. Chondrocytes were assayed for collagen accumulation (after 21 days from the onset of the differentiation protocol) using Sirius red/fast green collagen staining kit purchased from Amsbio. Osteocytes were assayed for calcium accumulation (21 days after the onset of the differentiation protocol) by the method of Jager et al, 2005. In each case, values were compared with those of control cells which had been cultured under normal growth conditions without being exposed to differentiation protocols.\nCells were inoculated at a density of 3x10^4 cells/well into 6 well plates and the osteocyte differentiation protocol followed (refer to Experimental Procedures for full protocol). After 21 days, cells were incubated with 0.6M HCl for 24 hours before calcium per well was measured by complexing with cresopthalein and measuring absorbance at 577nm. C: Absorbance at 540nm for cells treated with Sirius red/fast green dye to measure collagen accumulation."}, "hMSCs [2]": {"tested_on": "hMSCs", "assay": "Chondrocyte differentiation, collagen accumulation by Sirius red/fast green staining", "settings": "for activation at 5000 µM: Homo sapiens, Chondrocyte, 504 h, read-out: % increase over controls (chondrocyte differentiation); for Absorbance at 540nm, Chondrocyte-differentiated cells: 21 days; for Absorbance at 540nm, Control cells: no differentiation protocol", "protocol": "as §1\nCells were inoculated at a density of 2x10^5 cells/well into 6 well plates and the chondrocyte-differentiation protocol followed (refer to Experimental Procedures for full protocol). After 21 days, cells were fixed with Kahle fixative and stained with Sirius dye. Dye was extracted and the absorbance read at 540nm. n=3 ** p<0.004; *** p<0.0001"}, "hMSCs [3]": {"tested_on": "hMSCs", "assay": "Substrate oxidation in 24-well plates (14CO2 production from 14C-labelled substrates)", "settings": "for increase in substrate-oxidation rate between passage 2 and passage 5: normoxic-cultured cells (20% O2); for oxidation rate relative to glucose (fold higher): normoxic-cultured cells, 10mM acetoacetate vs 5.5mM glucose", "protocol": "(§2) Cryopreserved cells were thawed, washed with growth medium and seeded at a density of 1 X 10^6 cells per 225cm2 with Dulbecco's Modified Eagle's medium (DMEM) containing 2mM ultra-glutamine, 1g/l glucose, 50µg/ml gentamycin and 10% FBS. Where 3-hydroxybutyrate (3-HB) was included in the growth medium, the concentration was 5mM throughout. Cells were passaged at about 80% confluence. Cells for measurements of glycolysis or oxidation were seeded into 24-well plates at a density of 1 x 10^4 cells per well and used at about 90% confluence. Cells were maintained in either normoxic culture with 20% O2 tension or hypoxic culture with 5% O2 tension in an oxygen-tension controlled incubator. Previous workers have identified 5% O2 as being a physiologically significant level of O2 with respect to in vivo conditions for hMSCs, representing hypoxia (Pattappa et al., 2011).\nCells were incubated for 90 minutes in the presence of a single radiolabelled substrate (with addition of unlabelled substrates where indicated) in DMEM (containing no pyruvate, glucose or glutamine) in a total volume of 0.5 mls. The concentrations of single substrates were: 5.5mM glucose (considered similar to median human blood glucose concentration); 2mM pyruvate (considered higher than endogenous pyruvate concentration from glucose metabolism and sufficient to stimulate activity of pyruvate dehydrogenase plus pyruvate carboxylase); 1mM glutamine (considered similar to human blood glutamine concentrations); 10mM acetoacetate (considered similar to intracellular acetoacetate concentrations produced from maximal blood ketone body concentrations). In addition, substrates incorporated radiolabels as follows: glucose: ^21 MBq/mmol D-U-^14C-glucose; pyruvate: 0.35MBq/mmol 1-^14C-pyruvate; acetoacetate: 0.185MBq/mmol 3-^14C-acetoacetate; glutamine: 1.2 MBq/mmol U-^14C-glutamine. Evolved ^14CO2 was trapped and measured by the method of Collins et al. (1998), except that, after addition of perchloric acid to the wells, plates were gently agitated for 60 minutes to release dissolved ^14CO2. Filter papers containing trapped ^14CO2 were counted in Ecoscint using a Tri-Carb 2800TR Liquid Scintillation Analyser. […] Rates of ATP-production from individual substrates were calculated on the basis of mol/mol production as follows: glucose: 31; glutamine: 20; pyruvate: 12.5; acetoacetate: 20. For calculations of ATP-production from acetoacetate plus pyruvate, separate incubations were performed with ^14C-acetoacetate in the presence of unlabelled pyruvate and with ^14C-pyruvate in the presence of unlabelled acetoacetate. Rates of ATP-production from the labelled substrate were calculated for each condition and the results summed."}, "hMSCs [4]": {"tested_on": "hMSCs", "assay": "Adipocyte differentiation, fat accumulation by oil red O staining", "settings": "for Absorbance of eluate at 500nm, Adipocyte-differentiated cells: 18 days; for Absorbance of eluate at 500nm, Control cells: no differentiation protocol", "protocol": "as §1\nCells were inoculated at a density of 2x10^5 cells/well into 6 well plates and the adipocyte differentiation protocol followed (refer to Experimental Procedures for full protocol). After 18 days, medium was removed from wells and cells stained with oil red O. The dye was eluted from the cells and the absorbance of the eluate read at 500 nm. B: Absorbance at 577nm for cells treated with cresopthalein to measure Ca2+ accumulation."}, "hMSCs [5]": {"tested_on": "hMSCs", "assay": "Glycolytic rate in 24-well plates (3H2O production from 5-3H-glucose)", "settings": "p5 vs p2", "protocol": "as §2\nGlycolysis was measured as the production of ^3H2O from 5-^3H-glucose, which occurs during the step catalysed by enolase. Cells were incubated with 5.5mM glucose containing 17 MBq/mmol 5-^3H-glucose in DMEM without pyruvate, glutamine or glucose for 90 minutes in a total volume of 0.5mls. […] Washing with 2 column volumes of water eluted the ^3H2O which was counted for radioactivity (Tri-Carb 2800TR Liquid Scintillation Analyser)."}, "hMSCs [6]": {"tested_on": "hMSCs", "assay": "cells", "settings": "for ROS generated per mole of substrate oxidised: 90 minutes incubation with 5.5mM glucose or 10mM acetoacetate, normoxic-cultured cells, passage 5; for fold induction at 20 µM: Homo sapiens, 24 h, 24h pre-incubation with 20µM genipin, passage 5, normoxic", "protocol": "Cells were incubated under appropriate conditions in 24-well plates in a total volume of 0.2ml for 90 minutes. At 90 minutes, ROS were assayed using an Oxiselect Amplex Red kit from Cell Biolabs, Inc., according to the manufacturer's instructions. Where genipin was used, cells were pre-incubated for 24 hours with 20 µM genipin."}, "hMSCs [7]": {"tested_on": "hMSCs", "assay": "Calculated rates of ATP-production from substrate oxidation and glycolysis", "settings": "full oxidation assumed; passage 2, normoxic-cultured cells", "protocol": "Cells were incubated for 90 minutes in the presence of a single radiolabelled substrate (with addition of unlabelled substrates where indicated) in DMEM (containing no pyruvate, glucose or glutamine) in a total volume of 0.5 mls. […] Evolved ^14CO2 was trapped and measured by the method of Collins et al. (1998), except that, after addition of perchloric acid to the wells, plates were gently agitated for 60 minutes to release dissolved ^14CO2. Filter papers containing trapped ^14CO2 were counted in Ecoscint using a Tri-Carb 2800TR Liquid Scintillation Analyser. […] Rates of ATP-production from individual substrates were calculated on the basis of mol/mol production as follows: glucose: 31; glutamine: 20; pyruvate: 12.5; acetoacetate: 20. […] Rates of ATP-production from the labelled substrate were calculated for each condition and the results summed.\nATP-yields were calculated from the following values, as follows: from glycolysis of glucose, it is assumed that 2 moles ATP will be produced per mole glucose glycolysed. […]"}, "[8]": {"settings": "normoxic cells cultured with 5mM 3-HB from passages 1 to 5"}}, "note": "Where two headings read alike, the source gives them in different places.", "data": [{"smiles": "CC(O)CC(=O)O", "note": "(stereo not drawn) [3-HB, 3-hydroxybutyrate]", "values": [{"measurement": "% increase over control (osteocyte differentiation)", "setting": "hMSCs [1]; Hypoxia + 5mM 3-HB", "result": 36, "unit": "%"}, {"measurement": "Absorbance at 577nm, Osteocyte-differentiated cells", "setting": "hMSCs [1]; Hypoxia + 5mM 3-HB", "result": "*** 0.495 ± 0.007"}, {"measurement": "Absorbance at 577nm, Control cells", "setting": "hMSCs [1]; Hypoxia + 5mM 3-HB", "result": "0.363 ± 0.003"}, {"measurement": "% increase over control (osteocyte differentiation)", "setting": "hMSCs [1]; Normoxia + 5mM 3-HB", "result": 21, "unit": "%"}, {"measurement": "Absorbance at 577nm, Osteocyte-differentiated cells", "setting": "hMSCs [1]; Normoxia + 5mM 3-HB", "result": "*** 0.375 ± 0.003"}, {"measurement": "Absorbance at 577nm, Control cells", "setting": "hMSCs [1]; Normoxia + 5mM 3-HB", "result": "0.310 ± 0.001"}, {"measurement": "activation at 5000 µM", "setting": "hMSCs [2]; Hypoxia + 5mM 3-HB", "result": 45, "unit": "%"}, {"measurement": "activation at 5000 µM", "setting": "hMSCs [2]; Normoxia + 5mM 3-HB", "result": 178, "unit": "%"}, {"measurement": "Absorbance at 540nm, Chondrocyte-differentiated cells", "setting": "hMSCs [2]; Hypoxia + 5mM 3-HB", "result": "** 0.806 ± 0.024"}, {"measurement": "Absorbance at 540nm, Control cells", "setting": "hMSCs [2]; Hypoxia + 5mM 3-HB", "result": "0.556 ± 0.008"}, {"measurement": "Absorbance at 540nm, Chondrocyte-differentiated cells", "setting": "hMSCs [2]; Normoxia + 5mM 3-HB", "result": "*** 0.887 ± 0.020"}, {"measurement": "Absorbance at 540nm, Control cells", "setting": "hMSCs [2]; Normoxia + 5mM 3-HB", "result": "0.319 ± 0.004"}, {"measurement": "increase in glucose oxidation rate at passage 5", "setting": "hMSCs [3]; [8]", "result": 7.5, "unit": "fold"}, {"measurement": "reduction of acetoacetate oxidation rate at passage 5", "setting": "hMSCs [3]; [8]", "result": 1.3, "unit": "fold"}, {"measurement": "% increase over control (adipocyte differentiation)", "setting": "hMSCs [4]; Hypoxia + 5mM 3-HB", "result": 27, "unit": "%"}, {"measurement": "Absorbance of eluate at 500nm, Adipocyte-differentiated cells", "setting": "hMSCs [4]; Hypoxia + 5mM 3-HB", "result": "*** 0.727 ± 0.001"}, {"measurement": "Absorbance of eluate at 500nm, Control cells", "setting": "hMSCs [4]; Hypoxia + 5mM 3-HB", "result": "0.570 ± 0.001"}, {"measurement": "% increase over control (adipocyte differentiation)", "setting": "hMSCs [4]; Normoxia + 5mM 3-HB", "result": 34, "unit": "%"}, {"measurement": "Absorbance of eluate at 500nm, Adipocyte-differentiated cells", "setting": "hMSCs [4]; Normoxia + 5mM 3-HB", "result": "*** 0.698 ±0.005"}, {"measurement": "Absorbance of eluate at 500nm, Control cells", "setting": "hMSCs [4]; Normoxia + 5mM 3-HB", "result": "0.520 ± 0.006"}, {"measurement": "decrease in glycolytic rates by passage 5", "setting": "hMSCs [5]; cells cultured under hypoxia with 5mM 3-HB", "result": 1.5, "unit": "fold"}, {"measurement": "increase in glycolytic rate at p5", "setting": "hMSCs [5]; normoxic cells cultured with 5mM 3-HB", "result": 1.4, "unit": "fold"}]}, {"smiles": "CC(=O)CC(=O)O", "note": "[acetoacetate]", "values": [{"measurement": "ROS generated per mole of substrate oxidised", "setting": "hMSCs [6]", "result": "0.0017 moles of ROS"}, {"measurement": "difference in ROS generation per mole substrate oxidised, compared with glucose", "setting": "hMSCs [6]; acetoacetate lower than glucose", "result": 4.5, "unit": "fold"}, {"measurement": "increase in substrate-oxidation rate between passage 2 and passage 5", "setting": "hMSCs [3]", "result": 3.5, "unit": "fold"}, {"measurement": "oxidation rate relative to glucose (fold higher)", "setting": "hMSCs [3]; passage 2", "result": 25, "unit": "fold"}, {"measurement": "oxidation rate relative to glucose (fold higher)", "setting": "hMSCs [3]; passage 5", "result": 42, "unit": "fold"}]}, {"smiles": "COC(=O)C1=CO[C@@H](O)[C@@H]2C(CO)=CC[C@H]12", "note": "[genipin]", "values": [{"measurement": "fold induction at 20 µM", "setting": "hMSCs [6]; read-out: increase in ROS-production, acetoacetate substrate (10mM)", "result": 2}, {"measurement": "fold induction at 20 µM", "setting": "hMSCs [6]; read-out: increase in ROS-production, glucose substrate (5.5mM)", "result": 1.6}]}, {"smiles": "OC[C@H]1OC(O)[C@H](O)[C@@H](O)[C@@H]1O", "note": "(stereo partly drawn) [glucose, reference compound]", "values": [{"measurement": "ROS generated per mole of substrate oxidised", "setting": "hMSCs [6]", "result": "0.076 moles of ROS"}, {"measurement": "reduction of rate of acetoacetate-oxidation by added substrate", "setting": "hMSCs [3]; 10mM acetoacetate plus unlabelled 5.5mM glucose, passage 2, normoxic-cultured cells", "result": "more than 3 fold"}, {"measurement": "increase in substrate-oxidation rate between passage 2 and passage 5", "setting": "hMSCs [3]", "result": 2, "unit": "fold"}, {"measurement": "ATP produced compared with acetoacetate alone (times less)", "setting": "hMSCs [7]", "result": 16, "unit": "times less"}]}, {"smiles": "NC(=O)CC[C@H](N)C(=O)O", "note": "[glutamine, reference compound]", "values": [{"measurement": "increase in substrate-oxidation rate between passage 2 and passage 5", "setting": "hMSCs [3]", "result": "not significantly different"}, {"measurement": "ATP produced compared with acetoacetate alone (times less)", "setting": "hMSCs [7]", "result": 33, "unit": "times less"}]}, {"smiles": "O=C(O)CC(O)C(=O)O", "note": "(stereo not drawn) [malate, reference compound]", "values": [{"measurement": "effect of added substrate on rates of pyruvate oxidation", "setting": "hMSCs [3]; data not shown", "result": "no significant effect"}]}]}
